The target in experiment [1] is T1, recombinant human FLAP protein (Homo sapiens, UniProt P20292).
T1 construct: made in house; host or cells: Sf9 insect cells (100,000×g membrane pellet used)
T1 sequence (P20292 1-161): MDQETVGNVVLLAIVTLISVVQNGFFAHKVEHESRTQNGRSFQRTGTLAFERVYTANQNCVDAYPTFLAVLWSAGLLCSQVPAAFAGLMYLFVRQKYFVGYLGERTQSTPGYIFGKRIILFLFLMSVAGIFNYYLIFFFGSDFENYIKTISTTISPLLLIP
Description: FLAP binding assay (SPA, displacement of [125I]L-691,831). The settings on record: for IC50: membranes of sf9 cells expressing recombinant human FLAP, [125I]L-691,831 probe, read-out: FLAP binding IC50. The essentials: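 Membranes from sf9 cells expressing human FLAP in pH 7.5 Tris buffer (MgCl2, EDTA, PMSF). Non-specific binding defined with 10 μM cold L-691,831.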
A general note: In a radioligand displacement assay an active substance lowers the binding of a labelled ligand.

Experiment [2] relates to synthesis of LTB4 in human whole blood. Kind of experiment: Human whole blood assay (inhibition of LTB4 synthesis, calcimycin stimulated). It is filed as cell-based. As to conditions: heparinized human whole blood, calcimycin 20 μM, plasma LTB4. The essentials: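 Heparinized human whole blood was preincubated with compound for 15 min at 37° C, then stimulated with calcimycin (20 μM final, in PBS pH 7.4) for a further 30 min at 37° C. Plasma LTB4 was quantified by antibody-based homogeneous time-resolved fluorescence.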

For orientation: IC50 means the concentration at which inhibition is half-maximal. With `C[C@@](c1ccc(-c2cnc(N)nc2)cc1)(c1noc(-c2cnn(C3CC3)c2)n1)C1CC1` [Example 271, 5-(4-{(R)-1-Cyclopropyl-1-[5-(1-cyclopropyl-1H-pyrazol-4-yl)-[1,2,4]oxadiazol-3-yl]-ethyl}-phenyl)-pyrimidin-2-ylamine], the IC50 in experiment [1] came to 4.9 nM; in experiment [2] it was 51 nM.
In the case of `CN(C)C(=O)Cn1cc(-c2nc([C@](C)(c3ccc(-c4cnc5c(c4)OCCN5)cc3)C3CC3)no2)cn1` [Example 255, 2-[4-(3-{(S)-1-Cyclopropyl-1-[4-(3,4-dihydro-2H-pyrido[3,2-b][1,4]oxazin-7-yl)-phenyl]-ethyl}-[1,2,4]oxadiazol-5-yl)-pyrazol-1-yl]-N,N-dimethyl-acetamide], the results for the half-inhibitory concentration (IC50) in experiment [1] and in experiment [2] were 15 nM and 1800 nM, respectively.
For `CC(C)[C@@](C)(c1ccc(-c2cnc(N)nc2)cc1)c1noc(-c2ccn[nH]2)n1` [Example 24, 5-(4-{(2S)-3-methyl-2-[5-(1H-pyrazol-5-yl)-1,2,4-oxadiazol-3-yl]butan-2-yl}phenyl)pyrimidin-2-amine], in that order: 19 nM and 410 nM.
As for `CC(C)C(C)(c1ccc(-c2cnc(N)nc2)cc1)c1noc(N2CCN(C)CC2)n1` (stereo not drawn) [Example 96, 5-(4-{3-methyl-2-[5-(4-methylpiperazin-1-yl)-1,2,4-oxadiazol-3-yl]butan-2-yl}phenyl)pyrimidin-2-amine], the results for the IC50 in experiment [1] and in experiment [2] were 7.5 nM and 150 nM, respectively.
In the case of `Cc1ncc(-c2nc(C(C)(c3ccc(-c4cnc(N)nc4)cc3)C(C)C)no2)cn1` (stereo not drawn) [Example 152, 5-(4-{3-methyl-2-[5-(2-methylpyrimidin-5-yl)-1,2,4-oxadiazol-3-yl]butan-2-yl}phenyl)pyrimidin-2-amine], the values for the IC50 in experiment [1] and in experiment [2] were 3.3 nM and 270 nM, respectively.
`COCCNc1cnc(-c2nc(C(C)(c3ccc(-c4cnc(N)nc4)cc3)C3CCC3)no2)cn1` (stereo not drawn) [Example 36, 5-{4-[1-cyclobutyl-1-(5-{5-[(2-methoxyethyl)amino]pyrazin-2-yl}-1,2,4-oxadiazol-3-yl)ethyl]phenyl}pyrimidin-2-amine]: the results for the IC50 in experiment [1] and in experiment [2] were 3.2 nM and 170 nM, respectively.
`CC(C)C(C)(c1ccc(-c2cnc(N)nc2)cc1)c1noc(C2CCCNC2)n1` (stereo not drawn) [Example 113, 5-(4-{3-methyl-2-[5-(piperidin-3-yl)-1,2,4-oxadiazol-3-yl]butan-2-yl}phenyl)pyrimidin-2-amine]: the IC50 in experiment [1] turned out to be 66 nM; in experiment [2] it was 3100 nM.
Take `CC(C)C(C)(c1ccc(-c2cnc(N)nc2)cc1)c1noc(N2CCC(C(C)(C)O)CC2)n1` (stereo not drawn) [Example 198, 2-[1-(3-{1-[4-(2-Amino-pyrimidin-5-yl)-phenyl]-1,2-dimethyl-propyl}-[1,2,4]oxadiazol-5-yl)-piperidin-4-yl]-prop an-2-ol]: the IC50 in experiment [1] turned out to be 7.5 nM; in experiment [2] it was 280 nM.
For `COCCn1cc(-c2nc(C(C)(c3ccc(-c4cnc(N)nc4)cc3)C3CC3)no2)cn1` (stereo not drawn) [Example 30, 5-[4-(1-cyclopropyl-1-{5-[1-(2-methoxyethyl)-1H-pyrazol-4-yl]-1,2,4-oxadiazol-3-yl}ethyl)phenyl]pyrimidin-2-amine], in that order: 5 nM and 60 nM.
For `CC(C)C(C)(c1ccc(-c2cnc(N)nc2)cc1)c1noc(C2CCCCN2)n1` (stereo not drawn) [Example 114, 5-(4-{3-methyl-2-[5-(piperidin-2-yl)-1,2,4-oxadiazol-3-yl]butan-2-yl}phenyl)pyrimidin-2-amine], the IC50 was determined as 21 nM in experiment [1] and 1100 nM in experiment [2].
Regarding `CC(c1ccc(-c2cnc(N)nc2)cc1)(c1noc(N2CCC[C@H](O)C2)n1)C1CC1` (stereo partly drawn) [Example 288, (S)-1-(3-{1-[4-(2-Amino-pyrimidin-5-yl)-phenyl]-1-cyclopropyl-ethyl}-[1,2,4]oxadiazol-5-yl)-piperidin-3-ol], the half-inhibitory concentration (IC50) in experiment [1] was determined as 2.5 nM; in experiment [2], 200 nM.
In the same order, the values of `Cc1nc(N)ccc1-c1ccc([C@](C)(c2noc(-c3cnn(CC(=O)N(C)C)c3)n2)C2CC2)cc1` [Example 292, 2-[4-(3-{(R)-1-[4-(6-Amino-2-methyl-pyridin-3-yl)-phenyl]-1-cyclopropyl-ethyl}-[1,2,4]oxadiazol-5-yl)-pyrazol-1-yl]-N,N-dimethyl-acetamide] are 8.5 nM and 150 nM.
`CC(C)C(C)(c1ccc(-c2cnc(N)nc2)cc1)c1noc(-c2cnn(C)c2)n1` (stereo not drawn) [Example 15, 5-(4-{3-methyl-2-[5-(1-methyl-1H-pyrazol-4-yl)-1,2,4-oxadiazol-3-yl]butan-2-yl}1phenyl)pyrimidin-2-amine]: the IC50 in experiment [1] worked out at 2 nM; in experiment [2], 46 nM.
Consider `CC(C)C(C)(c1ccc(-c2cnc(N)nc2)cc1)c1noc(N2CCN(CC(=O)N(C)C)CC2)n1` (stereo not drawn) [Example 193, 2-[4-(3-{1-[4-(2-Amino-pyrimidin-5-yl)-phenyl]-1,2-dimethyl-propyl}-[1,2,4]oxadiazol-5-yl)-piperazin-1-yl]-N,N-dimethyl-acetamide], for which the values for the IC50 in experiment [1] and in experiment [2] were 18 nM and 230 nM, respectively.
Consider `CC(C)C(C)(c1ccc(-c2cnc(N)nc2)cc1)c1noc(O)n1` (stereo not drawn) [Example 88, 3-{1-[4-(2-Amino-pyrimidin-5-yl)-phenyl]-1,2-dimethyl-propyl}-[1,2,4]oxadiazol-5-ol], for which, in experiment [1] (at 1000 nM, read-out: FLAP binding % inh @ 1000 nM), the inhibition at 1 µM is 51%. Further, the IC50 in experiment [2] was more than 5000 nM.
For `CC(C)C(C)(c1ccc(-c2cnc(N)nc2)cc1)c1noc(C2CCCN(C(=O)OC(C)(C)C)C2)n1` (stereo not drawn) [Example 111, tert-butyl 3-(3-{2-[4-(2-aminopyrimidin-5-yl)phenyl]-3-methylbutan-2-yl}-1,2,4-oxadiazol-5-yl)piperidine-1-carboxylate], the values for the IC50 in experiment [1] and in experiment [2] were 15 nM and 2900 nM, respectively.
Regarding `C[C@@](c1ccc(-c2cnc(N)nc2)cc1)(c1noc(-c2cnn(C3COC3)c2)n1)C1CC1` [Example 54, 5-{4-[(1R)-1-cyclopropyl-1-{5-[1-(oxetan-3-yl)-1H-pyrazol-4-yl]-1,2,4-oxadiazol-3-yl}ethyl]phenyl}pyrimidin-2-amine], the IC50 in experiment [1] was 2.6 nM; in experiment [2], 27 nM.
On to `CC(c1ccc(-c2cnc(N)nc2)cc1)(c1noc(-c2cncn2C2COC2)n1)C1CC1` (stereo not drawn) [Example 206, 5-(4-{1-Cyclopropyl-1-[5-(3-oxetan-3-yl-3H-imidazol-4-yl)-[1,2,4]oxadiazol-3-yl]-ethyl}-phenyl)-pyrimidin-2-ylamine], for which the 50% inhibitory concentration (IC50) came out at 23 nM in experiment [1] and 310 nM in experiment [2].
With `CC(c1ccc(-c2cnc(N)nc2)cc1)(c1noc(N2CCC[C@@H](O)C2)n1)C1CC1` (stereo partly drawn) [Example 287, (R)-1-(3-{1-[4-(2-Amino-pyrimidin-5-yl)-phenyl]-1-cyclopropyl-ethyl}-[1,2,4]oxadiazol-5-yl)-piperidin-3-ol], the IC50 came to 7 nM in experiment [1] and 150 nM in experiment [2].
Take `CC(C)C(C)(c1ccc(-c2cnc(N)nc2)cc1)c1noc(C(=O)N2CCOCC2)n1` (stereo not drawn) [Example 90, (3-{2-[4-(2-aminopyrimidin-5-yl)phenyl]-3-methylbutan-2-yl}-1,2,4-oxadiazol-5-yl)(morpholin-4-yl)methanone]: the IC50 in experiment [1] was 63 nM; in experiment [2], 1500 nM.
For `Cn1cc(-c2nc([C@@](C)(c3ccc(-c4cnc(N)nc4)cc3)C3CC3)no2)cn1` [Example 61, 5-(4-{(1R)-1-cyclopropyl-1-[5-(1-methyl-1H-pyrazol-4-yl)-1,2,4-oxadiazol-3-yl]ethyl}phenyl)pyrimidin-2-amine], in that order: 1.3 nM and 15 nM.

The values are drawn from patent US8658661B2, “Oxadiazole inhibitors of leukotriene production” (Boehringer Ingelheim International GmbH, priority 2010, dated 2014).
